Results taken from patent EP1025114B1, “3'-N-MODIFIED 6-O-SUBSTITUTED ERYTHROMYCIN KETOLIDE DERIVATIVES HAVING ANTIBACTERIAL ACTIVITY” (priority 1997, dated 1999).

Tests used:
Assay in all cases: In vitro antibacterial activity, agar dilution MIC
Type in all cases: cell-based
[1] = tested on: Streptococcus Pheumoniae ATCC6303; conditions: Streptococcus Pheumoniae ATCC6303 (organism code XX); BHI agar, 35-37 °C, 20 to 24 hours; unit assumed
How it was run: (§1)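 Agar dilution on BHI agar: twelve successive compound dilutions, inoculated by Steers replicator with 1:100 dilutions (1:10 for slow growers such as Streptococcus). MIC is lowest concentration giving no growth, slight haze or sparse colonies versus drug-free control, judged visually; same-class reference antibiotic run alongside.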

[2] = tested on: Staphylococcus aureus CMX 553; conditions: Staphylococcus aureus CMX 553 (organism code FF); BHI agar, 35-37 °C, 20 to 24 hours; unit assumed
How it was run: as §1

[3] = tested on: Micrococcus luteus ATCC 4698; conditions: Micrococcus luteus ATCC 4698 (organism code PP); BHI agar, 35-37 °C, 20 to 24 hours; unit assumed
How it was run: as §1

[4] = tested on: Micrococcus luteus ATCC 9341; conditions: Micrococcus luteus ATCC 9341 (organism code OO); BHI agar, 35-37 °C, 20 to 24 hours; unit assumed
How it was run: as §1

Candida albicans CCH 442 = Candida albicans CCH 442 (organism code TT); BHI agar, 35-37 °C, 20 to 24 hours; unit assumed
How it was run: as §1

[5] = tested on: Haemophilis Influenzae DILL AMP R; conditions: Haemophilis Influenzae DILL AMP R (organism code WW); BHI agar, 35-37 °C, 20 to 24 hours; unit assumed
How it was run: as §1

[6] = tested on: Staphylococcus aureus NCTC10649M; conditions: Staphylococcus aureus NCTC10649M (organism code EE); BHI agar, 35-37 °C, 20 to 24 hours; unit assumed
How it was run: as §1

[7] = tested on: Nocardia Asteroides ATCC9970; conditions: Nocardia Asteroides ATCC9970 (organism code VV); BHI agar, 35-37 °C, 20 to 24 hours; unit assumed
How it was run: as §1

Escherichia coli JUHL = Escherichia coli JUHL (organism code QQ); BHI agar, 35-37 °C, 20 to 24 hours; unit assumed
How it was run: as §1

[8] = tested on: Staphylococcus aureus A5177; conditions: Staphylococcus aureus A5177 (organism code BB); BHI agar, 35-37 °C, 20 to 24 hours; unit assumed
How it was run: as §1

[9] = tested on: Streptococcus Pheumoniae 5979; conditions: Streptococcus Pheumoniae 5979 (organism code ZZ); BHI agar, 35-37 °C, 20 to 24 hours; unit assumed
How it was run: as §1

[10] = tested on: Streptococcus pyogenes 930; conditions: Streptococcus pyogenes 930 (organism code MM); BHI agar, 35-37 °C, 20 to 24 hours; unit assumed
How it was run: as §1

[11] = tested on: Streptococcus pyogenes EES61; conditions: Streptococcus pyogenes EES61 (organism code LL); BHI agar, 35-37 °C, 20 to 24 hours; unit assumed
How it was run: as §1

[12] = tested on: Staphylococcus aureus A-5278; conditions: Staphylococcus aureus A-5278 (organism code CC); BHI agar, 35-37 °C, 20 to 24 hours; unit assumed
How it was run: as §1

[13] = tested on: Enterococcus faecium ATCC 8043; conditions: Enterococcus faecium ATCC 8043 (organism code II); BHI agar, 35-37 °C, 20 to 24 hours; unit assumed
How it was run: as §1

[14] = tested on: Streptococcus bovis A-5169; conditions: Streptococcus bovis A-5169 (organism code JJ); BHI agar, 35-37 °C, 20 to 24 hours; unit assumed
How it was run: as §1

[15] = tested on: Staphylococcus aureus CMX 642A; conditions: Staphylococcus aureus CMX 642A (organism code DD); BHI agar, 35-37 °C, 20 to 24 hours; unit assumed
How it was run: as §1

Escherichia coli DC-2 = Escherichia coli DC-2 (organism code SS); BHI agar, 35-37 °C, 20 to 24 hours; unit assumed
How it was run: as §1

[16] = tested on: Streptococcus agalactiae CMX 508; conditions: Streptococcus agalactiae CMX 508 (organism code KK); BHI agar, 35-37 °C, 20 to 24 hours; unit assumed
How it was run: as §1

[17] = tested on: Streptococcus pyogenes PIU 2548; conditions: Streptococcus pyogenes PIU 2548 (organism code NN); BHI agar, 35-37 °C, 20 to 24 hours; unit assumed
How it was run: as §1

Escherichia coli SS = Escherichia coli SS (organism code RR); BHI agar, 35-37 °C, 20 to 24 hours; unit assumed
How it was run: as §1

[18] = tested on: Staphylococcus aureus 1775; conditions: Staphylococcus aureus 1775 (organism code GG); BHI agar, 35-37 °C, 20 to 24 hours; unit assumed
How it was run: as §1

[19] = tested on: Staphylococcus aureus ATCC 6538P; conditions: Staphylococcus aureus ATCC 6538P (organism code AA); BHI agar, 35-37 °C, 20 to 24 hours; unit assumed
How it was run: as §1

[20] = tested on: Streptococcus Pheumoniae GYR 1171; conditions: Streptococcus Pheumoniae GYR 1171 (organism code YY); BHI agar, 35-37 °C, 20 to 24 hours; unit assumed
How it was run: as §1

[21] = tested on: Staphylococcus epidermidis 3519; conditions: Staphylococcus epidermidis 3519 (organism code HH); BHI agar, 35-37 °C, 20 to 24 hours; unit assumed
How it was run: as §1

[22] = tested on: Streptococcus Pheumoniae 5649; conditions: Streptococcus Pheumoniae 5649 (organism code ZZA); BHI agar, 35-37 °C, 20 to 24 hours; unit assumed
How it was run: as §1

[23] = tested on: Mycobacterium smegmatis ATCC 114; conditions: Mycobacterium smegmatis ATCC 114 (organism code UU); BHI agar, 35-37 °C, 20 to 24 hours; unit assumed
How it was run: as §1

Work on `CC[C@H]1OC(=O)[C@H](C)C(=O)[C@H](C)[C@@H](O[C@@H]2O[C@H](C)C[C@H](N(C)CC=Cc3ccccc3)[C@H]2O)[C@](C)(OCC=Cc2cnc3ccccc3c2)C[C@@H](C)C(=O)[C@H](C)[C@H]2NC(=O)O[C@@]21C` [Example 17, Compound of Formula (II); R is -CH2CH=CH-(3-quinolyl), R^p is H, W is absent, R^w is H, R^1 is CH2CH=CHC6H5, R^2 is CH3] yielded an MIC [1] of no more than 0.015 µg/mL, an MIC [2] of 0.39 µg/mL and an MIC [3] of 0.39 µg/mL. For the same molecule, the MIC [4] was 0.05 µg/mL, the MIC (Candida albicans CCH 442) was greater than 100 µg/mL and the MIC [5] was 8 µg/mL. It also gave an MIC [6] of 0.78 µg/mL, an MIC [7] of 0.2 µg/mL and an MIC (Escherichia coli JUHL) greater than 100 µg/mL. It also gave an MIC [8] of 0.39 µg/mL, an MIC [9] of 16 µg/mL and an MIC [10] of 12.5 µg/mL. It also gave an MIC [11] of 0.2 µg/mL, an MIC [12] greater than 100 µg/mL and an MIC [13] of 0.1 µg/mL. The MIC [14] was 0.05 µg/mL, the MIC [15] was 0.39 µg/mL and the MIC (Escherichia coli DC-2) was greater than 100 µg/mL. The MIC [16] was 0.05 µg/mL, the MIC [17] was 0.39 µg/mL and the MIC (Escherichia coli SS) was 1.56 µg/mL. The MIC [18] was greater than 100 µg/mL, the MIC [19] was 0.39 µg/mL and the MIC [20] was no more than 0.015 µg/mL. It also gave an MIC [21] of 0.39 µg/mL, an MIC [22] of 0.25 µg/mL and an MIC [23] of 0.39 µg/mL.
For `C=C(CN(C)[C@H]1C[C@@H](C)O[C@@H](O[C@@H]2[C@@H](C)C(=O)[C@@H](C)C(=O)O[C@H](CC)[C@@]3(C)OC(=O)N[C@@H]3[C@@H](C)C(=O)[C@H](C)C[C@@]2(C)OCC=Cc2cnc3ccccc3c2)[C@@H]1O)C(=O)OC` [Example 18, Compound of Formula (II); R is -CH2CH=CH-(3-quinolyl), R^p is H, W is absent, R^w is H, R^1 is CH2C(=CH2)C(O)OCH3, R^2 is CH3], the MIC [1] was no more than 0.004 µg/mL, the MIC [2] was 0.39 µg/mL and the MIC [3] was 0.39 µg/mL. For the same molecule, the MIC [4] was 0.02 µg/mL, the MIC (Candida albicans CCH 442) was greater than 100 µg/mL and the MIC [5] was 16 µg/mL. It also gave an MIC [6] of 0.39 µg/mL, an MIC [7] of 0.2 µg/mL and an MIC (Escherichia coli JUHL) greater than 100 µg/mL. It also gave an MIC [8] of 0.39 µg/mL, an MIC [9] of 128 µg/mL and an MIC [10] of 25 µg/mL. For the same molecule, the MIC [11] was 0.05 µg/mL, the MIC [12] was greater than 100 µg/mL and the MIC [13] was 0.1 µg/mL. It also gave an MIC [14] of 0.02 µg/mL, an MIC [15] of 0.39 µg/mL and an MIC (Escherichia coli DC-2) greater than 100 µg/mL. The MIC [16] was 0.02 µg/mL, the MIC [17] was 0.39 µg/mL and the MIC (Escherichia coli SS) was 0.78 µg/mL. The MIC [18] was greater than 100 µg/mL, the MIC [19] was 0.39 µg/mL and the MIC [20] was no more than 0.004 µg/mL. The MIC [21] was 0.39 µg/mL, the MIC [22] was 0.5 µg/mL and the MIC [23] was 6.2 µg/mL.
For `C=C(C)CN(C)[C@H]1C[C@@H](C)O[C@@H](O[C@@H]2[C@@H](C)C(=O)[C@@H](C)C(=O)O[C@H](CC)[C@@]3(C)OC(=O)N[C@@H]3[C@@H](C)C(=O)[C@H](C)C[C@@]2(C)OCC=Cc2cnc3ccccc3c2)[C@@H]1O` [Example 19, Compound of Formula (II); R is -CH2CH=CH-(3-quinolyl), R^p is H, W is absent, R^w is H, R^1 is CH2C(=CH2)CH3,R^2 is CH3], the MIC [1] was no more than 0.004 µg/mL, the MIC [2] was 0.2 µg/mL and the MIC [3] was 0.1 µg/mL. The MIC [4] was 0.05 µg/mL, the MIC (Candida albicans CCH 442) was greater than 100 µg/mL and the MIC [5] was 4 µg/mL. For the same molecule, the MIC [6] was 0.39 µg/mL, the MIC [7] was 0.1 µg/mL and the MIC (Escherichia coli JUHL) was greater than 100 µg/mL. The MIC [8] was 0.2 µg/mL, the MIC [9] was 128 µg/mL and the MIC [10] was 6.2 µg/mL. It also gave an MIC [11] of 0.01 µg/mL, an MIC [12] greater than 100 µg/mL and an MIC [13] of 0.1 µg/mL. For the same molecule, the MIC [14] was 0.02 µg/mL, the MIC [15] was 0.2 µg/mL and the MIC (Escherichia coli DC-2) was greater than 100 µg/mL. For the same molecule, the MIC [16] was 0.02 µg/mL, the MIC [17] was 0.2 µg/mL and the MIC (Escherichia coli SS) was 0.78 µg/mL. The MIC [18] was greater than 100 µg/mL, the MIC [19] was 0.2 µg/mL and the MIC [20] was no more than 0.004 µg/mL. For the same molecule, the MIC [21] was 0.2 µg/mL, the MIC [22] was 0.12 µg/mL and the MIC [23] was 0.2 µg/mL.
Work on `CC[C@H]1OC(=O)[C@H](C)C(=O)[C@H](C)[C@@H](O[C@@H]2O[C@H](C)C[C@H](N(C)CC#N)[C@H]2O)[C@](C)(OCC=Cc2cnc3ccccc3c2)C[C@@H](C)C(=O)[C@H](C)[C@H]2NC(=O)O[C@@]21C` [Example 9, Compound of Formula (II); R is -CH2CH=CH-(3-quinolyl), R^p is H, W is absent, R^w is H, R^1 is CH2-CN, R^2 is CH3-] yielded an MIC [1] of 0.03 µg/mL, an MIC [2] of 0.05 µg/mL and an MIC [3] of 0.2 µg/mL. The MIC [4] was 0.02 µg/mL, the MIC (Candida albicans CCH 442) was greater than 100 µg/mL and the MIC [5] was 8 µg/mL. The MIC [6] was 0.1 µg/mL, the MIC [7] was 0.78 µg/mL and the MIC (Escherichia coli JUHL) was greater than 100 µg/mL. The MIC [8] was 0.1 µg/mL, the MIC [9] was 128 µg/mL and the MIC [10] was 12.5 µg/mL. The MIC [11] was 0.01 µg/mL, the MIC [12] was greater than 100 µg/mL and the MIC [13] was 0.1 µg/mL. It also gave an MIC [14] of 0.01 µg/mL, an MIC [15] of 0.1 µg/mL and an MIC (Escherichia coli DC-2) greater than 100 µg/mL. For the same molecule, the MIC [16] was 0.01 µg/mL, the MIC [17] was 0.39 µg/mL and the MIC (Escherichia coli SS) was 0.2 µg/mL. It also gave an MIC [18] greater than 100 µg/mL, an MIC [19] of 0.1 µg/mL and an MIC [20] of 0.03 µg/mL. The MIC [21] was 0.2 µg/mL, the MIC [22] was 0.5 µg/mL and the MIC [23] was 12.5 µg/mL.
